Here are results for 1 compound from US20210255184A1, “Biosensor Device and Methods” (The New Zealand Institute for Plant and Food Research …, priority 2018, published 2021).

This experiment addresses T1, Or10a (Drosophila melanogaster, UniProt Q9VYZ1).
T1 construct: his-tag; made in house; host or cells: baculovirus-infected Sf9 cells
T1 sequence (Q9VYZ1 1-406): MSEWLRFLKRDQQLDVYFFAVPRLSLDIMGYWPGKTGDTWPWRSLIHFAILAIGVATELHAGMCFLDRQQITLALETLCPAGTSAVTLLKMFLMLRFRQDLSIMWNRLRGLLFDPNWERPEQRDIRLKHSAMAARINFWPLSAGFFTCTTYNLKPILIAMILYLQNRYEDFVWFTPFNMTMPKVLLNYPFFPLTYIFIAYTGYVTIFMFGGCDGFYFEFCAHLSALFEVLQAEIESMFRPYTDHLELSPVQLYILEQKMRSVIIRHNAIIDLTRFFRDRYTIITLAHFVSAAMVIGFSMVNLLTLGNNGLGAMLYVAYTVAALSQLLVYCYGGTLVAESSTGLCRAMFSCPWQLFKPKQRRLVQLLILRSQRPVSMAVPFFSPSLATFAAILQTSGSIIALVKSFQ
In words: GFET sensor, Or10a liposomes. The settings on record: Table 4, GFET. Format: biochemical. The text has this: The GFETs used in this study were fabricated from a predeposited graphene film on 300 nm SiO2 coated Si substrate from ACS Suppliers, USA. The FETs consist of a channel with dimensions of 100 μm width and […]. The key steps involved in fabricating the GFET on a Si/SiO2 substrate is schematically illustrated in FIG. 12. The source and drain electrodes were defined by photolithography and formed by successive deposition of Cr and Au. Both the drain and source electrodes were then encapsulated using AZ1518 photoresist and a channel with dimensions of 100 μm width and 10 μm length was left open to the environment for gating and functionalisation.
The OR liposomes were functionalised onto the graphene surface via a non-covalent route using PBASE as the molecular linker as shown in FIG. 13. The OR liposomes were diluted at 1:10 ratio with 1×PBS (pH7.4). The cleaned GFETs were immersed in 1 mM PBASE solution in methanol for 1 hour. […]
Electrical sensor measurements of OR liposome functionalised GFETs were carried out using top liquid gate morphology as shown in the schematic in FIG. 15 (a). […] The transfer characteristics of the different graphene FETs (FIG. 15 (b) to (g)) were measured at Vds=1 mV while the liquid gate voltage Vlg was swept from −0.5 V to 1 V with an interval of 20 mV. […]

In the case of `COC(=O)c1ccccc1O` [methyl salicylate], the “Detection Range” value was 10^−12 to 10^−8 M and the EC50 was 0.0156 nM.
